Consider 34 compounds from patent US20050197350A1, “Novel quinoline, tetrahydroquinazoline, and pyrimidine derivatives and methods of treatment related to the use thereof” (TAISHO PHARMACEUTICAL CO., LTD., priority 2003, published 2005).

The structures appear in SMILES notation.

In one experiment the test system is MCH receptors. Put plainly: MCH receptor activity class (method not given). Conditions: MCH receptor activity class 1-3 (percent of control at 10^-7 M or IC50).
For the compound `Cc1c(Cl)cccc1NC(=O)NC[C@H]1CC[C@@H](Nc2cc(N(C)C)c3ccccc3n2)CC1` [compound 2385], the class was 3 (Class 3 The value of percent of control at 10^−7 M was more than 60% or the value of IC50 was more than 200 nM.). `Cc1cc(Cl)cc(Cl)c1NC(=S)N[C@H]1CC[C@@H](Nc2nccc(N(C)C)n2)CC1` [compound 2346, N-(2,4-dichloro-6-methylphenyl)-N′-(cis-4-{[4-(dimethylamino)pyrimidin-2-yl]amino}cyclohexyl)thiourea]: the class is listed as 2 (Class 2: The value of percent of control at 10^−7 M was from 40% to 60% or the value of IC′50 was from 50 nM to 200 nM.).

As to `Cc1cc(C)c(NC(=O)NC[C@H]2CC[C@@H](Nc3cc(N(C)C)c4ccccc4n3)CC2)c(C)c1` [compound 2367, N-[(cis-4-{[4-(dimethylamino)quinolin-2-yl]amino}cyclohexyl)methyl]-N′-mesitylurea], the class is reported as 2 (Class 2: The value of percent of control at 10^−7 M was from 40% to 60% or the value of IC′50 was from 50 nM to 200 nM.).

Staying with this experiment, now noted: MCH receptor; class by percent of control at 10^-7 M or IC50.
In the case of `CN(C)c1nc(N[C@H]2CC[C@@H](NC(=S)Nc3ccc(F)cc3F)CC2)nc2c1CCCC2` [compound 1972], the class is 3 (Class 3 The value of percent of control at 10^−7 M was more than 60% or the value of IC50 was more than 200 nM.). Take `C/C(=C\c1ccccc1)C(=O)N[C@H]1CC[C@@H](Nc2cc(N(C)C)c3ccccc3n2)CC1` [compound 87]: the class was 3 (Class 3 The value of percent of control at 10^−7 M was more than 60% or the value of IC50 was more than 200 nM.). Turning to `CCCCCCNC(=S)N[C@H]1CC[C@@H](Nc2nc3c(c(N(C)C)n2)CCCC3)CC1` [compound 1942], the class is 3 (Class 3 The value of percent of control at 10^−7 M was more than 60% or the value of IC50 was more than 200 nM.).

Turning to `CN(C)c1nc(N[C@H]2CC[C@@H](NC(=S)NCc3ccc(Cl)cc3)CC2)nc2c1CCCC2` [compound 2079], the class was 3 (Class 3 The value of percent of control at 10^−7 M was more than 60% or the value of IC50 was more than 200 nM.). In the case of `CN(C)c1cc(N[C@H]2CC[C@@H](NC(=O)OCc3ccc([N+](=O)[O-])cc3)CC2)nc2ccccc12` [compound 56], the class is 3 (Class 3 The value of percent of control at 10^−7 M was more than 60% or the value of IC50 was more than 200 nM.).

The same experiment, now with this note: activity class 1-3: percent of control at 10^-7 M or IC50.
With `CCOC(=O)N[C@H]1CC[C@@H](Nc2nc3c(c(N(C)C)n2)CCCC3)CC1` [compound 1587], the class is listed as 3 (Class 3 The value of percent of control at 10^−7 M was more than 60% or the value of IC50 was more than 200 nM.). On the same count and under the same terms, then `CN(C)c1nc(N[C@H]2CC[C@@H](CNC(=O)OCC3c4ccccc4-c4ccccc43)CC2)nc2c1CCCC2` [compound 1617], with 3 (Class 3 The value of percent of control at 10^−7 M was more than 60% or the value of IC50 was more than 200 nM.).

Staying with this experiment, now noted: activity class per percent of control at 10^-7 M or IC50.
On to `CN(C)c1nc(N[C@H]2CC[C@@H](NC(=O)CCCc3ccc([N+](=O)[O-])cc3)CC2)nc2c1CCCC2` [compound 1001], for which the class was 1 (Class 1: The value of percent of control at 10^−7 M was less than 40% or the value of IC50 was less than 50 nM.). In the case of `COc1cc(OC)c(CNC[C@H]2CC[C@@H](Nc3cc(N(C)C)c4ccccc4n3)CC2)cc1Br` [compound 1144], the class is reported as 2 (Class 2: The value of percent of control at 10^−7 M was from 40% to 60% or the value of IC′50 was from 50 nM to 200 nM.). On to `CC(C(=O)N[C@H]1CC[C@@H](Nc2nc3c(c(N(C)C)n2)CCCC3)CC1)c1ccc(N2Cc3ccccc3C2=O)cc1` (stereo partly drawn) [compound 985, N-(cis-4-{[4-(dimethylamino)-5,6,7,8-tetrahydroquinazolin-2-yl]amino}cyclohexyl)-2-[4-(1-oxo-1,3-dihydro-2H-isoindol-2-yl)pheny]propanamide], for which the class is recorded as 2 (Class 2: The value of percent of control at 10^−7 M was from 40% to 60% or the value of IC′50 was from 50 nM to 200 nM.).

The same experiment, now with this note: class 1-3 by percent of control at 10^-7 M or IC50.
As to `CN(C)c1nc(N[C@H]2CC[C@@H](NC(=O)c3ccc(Cl)cc3)CC2)nc2c1CCCC2` [compound 461], the class is on record as 1 (Class 1: The value of percent of control at 10^−7 M was less than 40% or the value of IC50 was less than 50 nM.). On the same count and under the same terms, then `Cc1cc(=O)oc2c(OCC(=O)N[C@H]3CC[C@@H](Nc4nc5c(c(N(C)C)n4)CCCC5)CC3)cccc12` [compound 580], with 3 (Class 3 The value of percent of control at 10^−7 M was more than 60% or the value of IC50 was more than 200 nM.); and `CN(C)c1nc(N[C@H]2CC[C@@H](NC(=O)c3ccc(Cl)c([N+](=O)[O-])c3)CC2)nc2c1CCCC2` [compound 463], with 1 (Class 1: The value of percent of control at 10^−7 M was less than 40% or the value of IC50 was less than 50 nM.); and `CN(C)c1ccnc(N[C@H]2CC[C@@H](CNC(=O)c3csc4ccccc34)CC2)n1` [compound 436], with 3 (Class 3 The value of percent of control at 10^−7 M was more than 60% or the value of IC50 was more than 200 nM.).

Staying with this experiment, now noted: class by percent of control at 10^-7 M or IC50.
With `CN(C)c1ccnc(N[C@H]2CC[C@@H](CNCc3cccc(C#N)c3)CC2)n1` [compound 1284], the class is 3 (Class 3 The value of percent of control at 10^−7 M was more than 60% or the value of IC50 was more than 200 nM.). On the same count and under the same terms, with `Cc1cccc(C(=O)NC[C@H]2CC[C@@H](Nc3nc4c(c(N(C)C)n3)CCCC4)CC2)c1` [compound 612] the figure was 3 (Class 3 The value of percent of control at 10^−7 M was more than 60% or the value of IC50 was more than 200 nM.); with `CN(C)c1nc(N[C@H]2CC[C@@H](CNC(=O)OCc3ccc([N+](=O)[O-])cc3)CC2)nc2c1CCCC2` [compound 618], 3 (Class 3 The value of percent of control at 10^−7 M was more than 60% or the value of IC50 was more than 200 nM.). Same read-out and setting: then `CN(C)c1ccnc(N[C@H]2CC[C@@H](CNC(=O)C3C[C@H]3c3ccccc3)CC2)n1` (stereo partly shown) [compound 391], with 3 (Class 3 The value of percent of control at 10^−7 M was more than 60% or the value of IC50 was more than 200 nM.). For the compound `CN(C)c1cc(N[C@H]2CC[C@@H](CNC(=O)c3ccc(-c4ccccc4)cc3)CC2)nc2ccccc12` [compound 219], the class is given as 3 (Class 3 The value of percent of control at 10^−7 M was more than 60% or the value of IC50 was more than 200 nM.).

Regarding `CCc1cccc2c(C(CC(=O)c3ccc(C(C)(C)C)cc3)C(=O)N[C@H]3CC[C@@H](Nc4nccc(N(C)C)n4)CC3)c[nH]c12` (relative stereo) [compound 860], the class is 3 (Class 3 The value of percent of control at 10^−7 M was more than 60% or the value of IC50 was more than 200 nM.). `Cc1cccc(Cl)c1NC(=O)N[C@H]1CC[C@@H](Nc2cc(N(C)C)c3ccccc3n2)CC1` [compound 2104]: the class is 3 (Class 3 The value of percent of control at 10^−7 M was more than 60% or the value of IC50 was more than 200 nM.). `CN(C)c1nc(N[C@H]2CC[C@@H](NC(=O)Nc3ccc(Cl)cc3)CC2)nc2c1CCCC2` [compound 1815]: the class is listed as 3 (Class 3 The value of percent of control at 10^−7 M was more than 60% or the value of IC50 was more than 200 nM.).

Take `CN(C)c1ccnc(N[C@H]2CC[C@@H](NC(=O)c3cc(F)cc(F)c3)CC2)n1` [compound 252, N-(cis-4-{[4-(dimethylamino)pyrimidin-2-yl]amino}cyclohexyl)-3,5-difluorobenzamide]: the class is listed as 2 (Class 2: The value of percent of control at 10^−7 M was from 40% to 60% or the value of IC′50 was from 50 nM to 200 nM.).

For `CN(C)c1ccnc(N[C@H]2CC[C@@H](NC(=O)c3cncc(Br)c3)CC2)n1` [compound 306], the class is listed as 3 (Class 3 The value of percent of control at 10^−7 M was more than 60% or the value of IC50 was more than 200 nM.).

Turning to `Cc1cc(C)c(NC(=S)N[C@H]2CC[C@@H](Nc3cc(N(C)C)c4ccccc4n3)CC2)c(C)c1` [compound 2275, N-(cis-4-{[4-(dimethylamino)quinolin-2-yl]amino}cyclohexyl)-N′-mesitylthiourea], the class is listed as 1 (Class 1: The value of percent of control at 10^−7 M was less than 40% or the value of IC50 was less than 50 nM.). The same measure, in the same setting: then `CCCCc1ccc(NC(=S)N[C@H]2CC[C@@H](Nc3nc4c(c(N(C)C)n3)CCCC4)CC2)c(C)c1` [compound 1793], with 3 (Class 3 The value of percent of control at 10^−7 M was more than 60% or the value of IC50 was more than 200 nM.). For the compound `COc1cc(CNC[C@H]2CC[C@@H](Nc3nc4c(c(N(C)C)n3)CCCC4)CC2)cc(OC)c1OC` [compound 1378], the class is 2 (Class 2: The value of percent of control at 10^−7 M was from 40% to 60% or the value of IC′50 was from 50 nM to 200 nM.).

Still in this experiment, the particulars now being: class by percent of control at 10^−7 M or IC50.
On to `Cc1cnc(N[C@H]2CC[C@@H](NC(=O)N(C)c3ccc(Cl)c(Cl)c3)CC2)nc1N(C)C` [compound 3022, N-(3,4-dichlorophenyl)-N′-(cis-4-{[4-(dimethylamino)-5-methylpyrimidin-2-yl]amino}cyclohexyl)-N-methylurea], for which the class is listed as 1 (Class 1: The value of percent of control at 10^−7 M was less than 40% or the value of IC50 was less than 50 nM.). Regarding `Cc1cnc(N[C@H]2CC[C@@H](NC(=O)c3ccccc3)CC2)nc1N(C)C` [compound 2904, N-(cis-4-{[4-(dimethylamino)-5-methylpyrimidin-2-yl]amino}cyclohexyl)benzamide], the class is listed as 2 (Class 2: The value of percent of control at 10^−7 M was from 40% to 60% or the value of IC′50 was from 50 nM to 200 nM.). Same read-out and setting: with `CCOc1cccc(C(=O)N[C@H]2CC[C@@H](Nc3nc(C)cc(N(C)C)n3)CC2)c1` [compound 2976, N-(cis-4-{[4-(dimethylamino)-6-methylpyrimidin-2-yl]amino}cyclohexyl)-3-ethoxybenzamide] the figure was 2 (Class 2: The value of percent of control at 10^−7 M was from 40% to 60% or the value of IC′50 was from 50 nM to 200 nM.). Turning to `Cc1ccc(C(=O)N[C@H]2CC[C@@H](Nc3nc(C)c(C)c(N(C)C)n3)CC2)s1` [compound 2858], the class is 1 (Class 1: The value of percent of control at 10^−7 M was less than 40% or the value of IC50 was less than 50 nM.).
